# Laboratory results reported in a melting point compilation (Tetko et al.; mined from patent text by program, amines drawn as free bases though some values may be those of a salt).
row,melting point [°C],SMILES
1,150 to 156,CC1(c2ccc(F)cc2)Cc2cc(OCC(=O)O)c(Cl)c(Cl)c2C1=O (configuration not stated)
2,181 to 182,CSc1ccc(C=C2C(C)=C(CC(=O)O)c3cc(F)c(F)cc32)cc1
3,101 to 104,CCN1CCC(=O)N(c2ccccc2F)C1=S
4,197 to 198,Cc1ccc(C(=O)NC(NC(=S)Nc2cccc(C)c2)C(F)(F)F)cc1 (configuration not stated)
5,218 to 220,O=C(O)CCN1CCN2c3ccccc3Sc3ccccc3C2C1 (configuration not stated)
6,224 to 227,CCCCCCC1CCC(=O)N1c1ccc(Cl)c(NC2=NN(c3c(Cl)cc(Cl)cc3Cl)C(=O)C2)c1 (configuration not stated)
7,85 to 86,CCNc1cn(-c2cncc(F)c2)nc1C
8,124 to 125,C=C(C)Cc1c(C)c(NC(=O)CC(C)(C)C)c(C)c(Cc2ccc(C(C)C)cc2)c1O
9,227 to 228,CCOC(=O)c1cn(C2CC2)c2c(F)c(N3CC[C@H](N)C3)c(F)cc2c1=O
10,253 to 254,C[C@@H]1CN(c2cc3c(c(N)c2F)c(=O)c(C(=O)O)cn3C2CC2)C[C@H](C)N1
11,234 to 236,N#Cc1ccc(-c2cc(Oc3cccc4ccc(N)nc34)ncn2)cc1
12,137 to 141,Cc1c(-c2cccnc2)n(CCCCCC(=O)O)c2ccc(Cl)cc12
13,109 to 111,CN(C)CCCOc1ccc(C(=O)NN)cc1F
14,89 to 90,CCCc1nccn1-c1nc(-c2ccc(Cl)cc2)c(CCCOc2ccccc2OC)o1
15,203 to 205,COc1cc(OC)nc(NC(=O)NS(=O)(=O)c2ccccc2S(=O)(=O)OCC(F)(F)F)n1
16,97 to 98,FC(F)(F)CN1CCOC(CN2c3ccccc3C=Cc3ccccc32)C1 (configuration not stated)
17,191 to 193,O=C(O)CCC(=O)c1ccc(NC(=O)c2ccccc2F)cc1
18,150,C=Cc1cnc(-c2ncccn2)nc1
19,106 to 107,CCN1C(=O)Cc2cc3c(cc21)CCO3
20,150 to 152,Cc1cc(Oc2ncc(C(F)(F)F)cc2Cl)nn1C(=O)Nc1ccc(Cl)c(Cl)c1
21,368 to 372,CC(C)(C)NC1=NS(=O)(=O)c2sc(Cl)cc2N1
22,> 250,NCC1Cc2cc(-c3cccc(F)c3)cc(F)c2O1 (configuration not stated)
23,115 to 116,OC(c1ccc2c(c1)CCCN2)(C(F)(F)F)C(F)(F)F
24,121 to 122,O=C1CC[C@@H](COc2cccnc2)N1

row,melting point [°C],SMILES
1,179 to 180,COc1nc(C)cnc1NS(=O)(=O)c1cccnc1-c1ccc(-c2ncon2)cc1
2,166 to 168,CC(=O)N(C(=O)N1CC(c2ccc(Cl)cc2)C(c2ccc(Cl)cc2)=N1)c1ccc(C(F)(F)F)cc1 (configuration not stated)
3,123 to 124,O=S(=O)(c1ccccc1)c1ccc(/C=C/C(O)(C(F)F)C(F)F)cc1
4,173 to 175,CC(=O)N1CCN=C1Nc1cc(C)nn1-c1cccc(C(F)(F)F)c1
5,145,CN(C)c1ccc(C2(c3ccc(N(C)C)cc3)Oc3ccccc3-c3[nH]c4ccccc4c32)cc1
6,313 to 315,O=c1nc(-c2ccccn2)sc2ccc(O)cc12
7,243 to 245,CCOC(=O)N1Cc2sc3ncn(CCO)c(=O)c3c2C1
8,252 to 253,COc1cc(OC)n2nc(S(=O)(=O)Nc3c(Cl)cccc3Cl)nc2c1
9,228 to 230,O=C(COc1ccc(CCNS(=O)(=O)c2ccc(Cl)cc2)cc1)Nc1nnn[nH]1
10,143,COc1cccc(Oc2c(NS(=O)(=O)c3ccc(C(C)(C)C)cc3)nc(C(=O)Nc3ccccc3)nc2OCCO)c1
11,142 to 144,O=[N+]([O-])c1ccc2c(c1)CS(=O)(=O)N2CCF
12,207 to 215,Cc1cc(O)ccc1-n1cc(C(=O)O)c(=O)cc1C1CCC(N(C)C)CC1 (configuration not stated)
13,139 to 141,CC(C)OC(=O)Nc1c(C(O)(C(F)(F)F)C(F)(F)F)ccc2ccccc12
14,149 to 156,c1ccc(NCC2CCCO2)cc1 (configuration not stated)
15,179 to 180,CC(C)(C)OC(=O)N1CCC(Cc2ccc(Cl)cc2)(C(=O)O)CC1
16,159 to 160,CCn1nc2c(N)nc3ccccc3c2c1CCCCO
17,137 to 138,N#Cc1cc(N)ccc1N1CCN(CCO)CC1
18,125 to 126,CCOC(=O)c1c(C)nc(-c2ccccc2)nc1-c1cc([N+](=O)[O-])ccc1SC
19,152 to 154,CS(=O)(=O)Nc1ccc(Cn2ncc(Cl)c(Cl)c2=O)cc1
20,54 to 57,NC(CO)c1ccc(OC(F)F)cc1 (configuration not stated)
21,167 to 168,CC(C)c1c(Sc2cc(Cl)cc(Cl)c2)nc(CO)n1C
22,231 to 234,CC1(C)CNC(=O)c2cc3nc(-c4ccncc4)[nH]c3cc21
23,100 to 109,COc1cc(N2CCC(N3CCCN(C)CC3)CC2)ccc1Nc1ncc2ccc(-c3ccccc3N(C)S(C)(=O)=O)n2n1
24,90 to 92,CCOC(=O)C=Cc1cc(OCc2ccccc2)ccc1-c1ccc(-c2cccc(C)c2)c(C=O)c1

row,melting point [°C],SMILES
1,156,CC(C)C(C(=O)O)N1C(=O)C2C3C=CC(CC3)C2C1=O (configuration not stated)
2,176 to 179,CC(C)(C)OC(=O)N1CCN(c2ccc3ncc(Br)n3n2)CC1
3,84 to 86,Fc1cncc(F)c1C1=NC(c2ccc(I)cc2)CO1 (configuration not stated)
4,150 to 151,COC(=O)c1ccc(-c2nc(-c3cccc(Cl)c3)cs2)cc1
5,146,CC(Oc1cccc(Oc2c(Cl)cc(C(F)(F)F)cc2Cl)c1)(C(=O)O)[N+](=O)[O-] (configuration not stated)
6,203 to 205,CS(=O)(=O)Nc1ccc(F)c(C(=O)O)c1
7,87 to 89,CCN(C(=O)OC(C)(C)C)C1CC=C(c2c[nH]c3ccc(N)cc23)CC1 (configuration not stated)
8,140 to 142,O=C(O)CCC(=O)c1cccc(-n2ccnc2)c1
9,28.5 to 31,C#Cc1ccc(-c2ccccc2F)cc1
10,179 to 180,COc1cc2c(Oc3ccc(Cl)cc3F)ncnc2cc1OCc1ccccc1
11,164,O=C(c1ccc(F)cc1)C1CCN(CCCn2c(=O)[nH]c3cc(Cl)ccc32)CC1
12,85 to 87,O=C1CCCc2cc(OCCCCl)ccc21
13,110 to 112,CCOC(=O)c1cc2ccc(SCc3ccc(OC)cc3)cc2nc1Cl
14,115 to 116,COC(=O)c1cc(OC)c(N(C)C(C)=O)c(OC)c1
15,235 to 237,O=C(Nc1n[nH]c(=S)s1)N[C@@H](Cc1ccccc1)C(=O)N1CCN(c2ncccn2)CC1
16,300 to 301,Cn1c(C(=O)Nc2cc3c(cn2)[nH]c2ccccc23)cc2ccccc21
17,259 to 260,O=C(O)CCCOc1cccc(CNC(=O)c2nc3ccccc3c(=O)[nH]2)c1
18,112 to 114,O=C1NC(=O)C(c2ccc(Cl)o2)O1 (configuration not stated)
19,91 to 93,O=C(Cn1nnnc1-c1ccoc1)OCCO
20,116 to 118,CS(=O)(=O)c1ccc(-c2cc(CO)nn2C2CCCCCC2)cc1
21,133 to 135,COc1ccc(C(=CC=Cc2ccc(N(c3ccc(C)cc3)c3ccc(C)cc3)cc2)c2ccc(OC)cc2)cc1
22,164 to 165,C=CCc1c(O)ccc2c(=O)cc(C(=O)OCC)oc12
23,269 to 270,COC1CN(C(=O)c2cnn(C)c2C(=O)Nc2ccn3nc(-c4ccccc4)nc3c2)C1

row,SMILES,melting point [°C]
1,CN1CCc2c(Cl)c(O)c(O)c(Sc3ccccc3)c2CC1,173 to 174
